From patent publication US20100297156A1, “ANALOGUES OF PHOSPHATIDYLINOSITOL MANNOSIDES” (INDUSTRIAL RESEARCH LIMITED, priority 2006, published 2010)

Key:
[1] = test system: bovine dendritic cells (DC); assay: IL-12 induction in in vitro bovine dendritic cell (DC) assay, IL-12 ELISA; assay type: cell-based; details: 50 μg of each compound; supernatants collected 48 hours after stimulation
Experimental: Peripheral blood mononuclear cells (PBMCs) were isolated from heparinized blood of cattle by density-gradient centrifugation. Cells were adjusted to 10^7/ml in RPMI-1640 medium containing 10% heat-inactivated FCS, 10 mM HEPES, 5×10^−5 M 2-mercaptoethanol. Non-adherent cells were removed after 3 hours by washing with warm phosphate buffered saline (PBS). Adherent cells were then incubated in complete medium with 0.2 U/mI of recombinant bovine GM-CSF and 200 U/ml of recombinant bovine IL-4 (Both from Serotec, Oxford, UK), replenished daily. After 3-4 days, fresh media and cytokines were added to cells. Cells were harvested after 7-10 days of culture, washed three times and adjusted to desired cell numbers. […]
(§1) Plates (Maxisorp, Nunc, Denmark) were coated with 8 μg/ml anti-IL-12 (B @ D Pharmaceuticals) and incubated overnight at room temperature. […] Following the final washing step, TMB substrate was added, the reaction was stopped by the addition of H2SO4, and the absorbance values were read at 450 nm.
Th1 inducing activities of compounds 1.9 and 2.5 were tested in an in vitro bovine dendritic cell (DC) assay (FIG. 1). […] Supernatants were collected 48 hours after stimulation, and IL-12 levels measured.

[2] = test system: mouse dendritic cells (DC); assay: IL-12 induction in in vitro mouse dendritic cell (DC) assay, IL-12 ELISA; assay type: cell-based; details: 50 μg of each compound; supernatants collected 48 hours after stimulation
Experimental: Bone marrow contents of C57BU6 mice were obtained from the femurs, by flushing the inside of the bones with media (see below). Cells were then incubated in complete medium with 0.2 U/mI of recombinant GM-CSF and 200 U/ml of recombinant IL-4 (Both from Serotec, Oxford, UK), replenished daily. After 3-4 days, fresh media and cytokines were added to cells. Cells were harvested after 7-10 days of culture, washed three times and adjusted to desired cell numbers. When harvested, cells were more than 95% DCs based on the following: DCs lacked B and T cells markers had high expression of MHC class 2 and class 1 (Serotec), and had low expression of CD11a (Serotec) and CD14 (Serotec), and expressed CD11c (Serotec). […]
as §1
IL-10 and IL-12 inducing activities of compounds 1.9, 2.5, 3.5, 4,6, 5.3, 6.2, 7.10, 8.6, 9.2, and 10.3 were tested in an in vitro mouse dendritic cell (DC) assay (FIG. 2). […] Supernatants were collected 48 hours after stimulation, and IL-12 and IL-10 levels measured.

Compound	Induction of IL-12 on bovine dendritic cells [1]	Induction of IL-12 on mouse dendritic cells [2]
CCCCCCCCCCCCCCCCO[C@H](COC(=O)CCCCCCCCCCCCCCC)COP(=O)(O)O[C@@H]1C(O[C@H]2OC(CO)[C@@H](O)[C@H](O)C2O)C(O)[C@@H](O)[C@H](O)C1O[C@H]1OC(CO)[C@@H](O)C(O)[C@H]1O (stereo partly drawn) [Compound 1.9, 2,6-(Di-O-α-D-mannopyranosyl)-1-O-(1-O-hexadecanoyl-2-O-hexadecyl-sn-glycero-3-phosphoryl)-D-myo-inositol]	very high levels of IL-12	the most potent inducing more IL-12 than the positive controls MPL and PAMCSK
CCCCCCCCCCCCCCCCOC[C@H](COP(=O)(O)O[C@@H]1C(O[C@H]2OC(CO)[C@@H](O)[C@H](O)C2O)C(O)[C@@H](O)[C@H](O)C1O[C@H]1OC(CO)[C@@H](O)C(O)[C@H]1O)OC(=O)CCCCCCCCCCCCCCC (stereo partly drawn) [Compound 4.6, 2,6-(Di-O-α-D-mannopyranosyl)-1-O-(2-hexadecanoyl-1-O-hexadecyl-sn-glycero-3-phosphoryl)-D-myo-inositol]	–	the most potent inducing more IL-12 than the positive controls MPL and PAMCSK
